Test results from the supplement of paper PMC10307832.

Legend:
Test in all cases: relative viability (nuclei count vs DMSO), 5 days (fraction); higher = more cells survive
Lenalidomide = compound: Nc1cccc2c1CN(C1CCC(=O)NC1=O)C2=O [Lenalidomide]
Summary of the method: (§1)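 After an overnight hold at 37 °C, lung cancer cell lines in 1536-well plates were pinned with five library-drug doses (not always all listed), each √10 from the next, on vehicle-anchored plates. The cells stayed 5 days without fresh medium, then a one-step fix, permeabilisation and Hoechst stain preceded 4× imaging and MetaXpress nuclear counts. A plate passed only with control CV under 25% and at least one doubling. Viability is the median, over plates, of treated-well nuclei relative to vehicle-well nuclei.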

Luminespib = compound: CCNC(=O)c1noc(-c2cc(C(C)C)c(O)cc2O)c1-c1ccc(CN2CCOCC2)cc1 [Luminespib]
Summary of the method: as §1

MIM1 = compound: CC1=CSC(=NC2CCCCC2)N1/N=C/C3=C(C(=C(C=C3)O)O)O [MIM1]
Summary of the method: as §1

Saracatinib = compound: CN1CCN(CCOc2cc(OC3CCOCC3)c3c(Nc4c(Cl)ccc5c4OCO5)ncnc3c2)CC1 [Saracatinib]
Summary of the method: as §1

Nilotinib = compound: Cc1cn(-c2cc(NC(=O)c3ccc(C)c(Nc4nccc(-c5cccnc5)n4)c3)cc(C(F)(F)F)c2)cn1 [Nilotinib]
Summary of the method: as §1

| Cell Line | relative viability (Lenalidomide; 0.253 µM) | relative viability (Lenalidomide; 0.8 µM) | relative viability (Lenalidomide; 2.53 µM) | relative viability (Lenalidomide; 8 µM) | relative viability (Luminespib; 0.002 µM) | relative viability (Luminespib; 0.006325 µM) | relative viability (Luminespib; 0.01 µM, anchor plate) | relative viability (Luminespib; 0.02 µM) | relative viability (Luminespib; 0.06325 µM) | relative viability (Luminespib; 0.2 µM) | relative viability (MIM1; 0.2 µM) | relative viability (MIM1; 0.6325 µM) | relative viability (MIM1; 2 µM) | relative viability (MIM1; 6.325 µM) | relative viability (MIM1; 20 µM) | relative viability (Saracatinib; 0.02 µM) | relative viability (Saracatinib; 0.2 µM) | relative viability (Saracatinib; 0.6325 µM) | relative viability (Saracatinib; 2 µM) | relative viability (Nilotinib; 0.001 µM) | relative viability (Nilotinib; 0.003162 µM) | relative viability (Nilotinib; 0.03162 µM) | relative viability (Nilotinib; 0.1 µM) | relative viability (Nilotinib; 0.01 µM) |
| --- | --- | --- | --- | --- | --- | --- | --- | --- | --- | --- | --- | --- | --- | --- | --- | --- | --- | --- | --- | --- | --- | --- | --- | --- |
| CAL-12T | 0.979 | 1.04 | 1.27 | 1.16 | 1.03 | 0.933 | 0.47 | 0.591 | 0.136 | 0.13 | 1.05 | 0.819 | 0.92 | 0.708 | 0.434 | 1.06 | 0.996 | 1.14 | 0.903 | 0.928 | 0.91 | 0.688 | 0.654 |  |
| Calu-6 | 0.973 | 1.02 | 1.09 | 1.02 | 1.03 | 0.892 |  | 0.899 | 0.136 | 0.122 | 1.03 | 0.928 | 0.967 | 0.444 | 0.242 | 0.923 | 0.902 | 0.926 | 0.755 | 0.937 | 1.07 | 0.781 | 0.891 | 1.09 |
| NCI-H647 | 0.993 | 0.753 | 1.16 | 0.904 | 0.953 | 0.935 | 0.174 | 0.674 | 0.0941 | 0.092 | 0.933 | 0.951 | 0.51 | 0.821 | 0.3 | 0.967 | 0.868 | 0.858 | 0.572 | 0.889 | 1.17 | 0.729 | 0.878 | 1.35 |
| H3255 | 0.983 | 0.969 | 1.05 | 0.882 | 0.969 | 0.808 | 0.933 | 0.702 | 0.834 | 0.346 | 0.952 | 0.882 | 0.891 | 0.724 | 0.35 | 1.04 | 0.851 | 0.989 | 0.348 | 0.937 | 0.971 | 0.877 | 0.907 |  |
| HCC-78 | 0.885 | 0.861 | 0.957 | 0.618 | 0.869 | 0.72 |  |  | 0.999 | 0.4 | 1.07 | 0.549 | 0.888 | 0.677 | 0.424 | 0.956 | 0.815 | 1.08 | 0.834 | 1.06 | 0.937 | 0.84 | 0.746 | 1.07 |
| NCI-H596 | 0.906 | 0.704 | 1.09 | 0.723 | 1.06 | 0.901 | 1.09 | 0.684 | 0.919 | 0.921 | 1.11 | 1.19 | 0.88 | 0.939 | 0.685 | 1.12 | 0.817 | 0.906 | 0.815 | 0.939 | 0.982 | 0.771 | 0.848 | 1.05 |
| PC-3 [JPC-3] | 1.03 | 0.899 | 1.13 | 1.08 | 1.01 | 0.915 | 0.669 | 0.982 | 0.961 | 0.281 | 1.05 | 1.04 | 0.988 | 0.874 | 0.439 | 1.02 | 0.945 | 0.766 | 0.541 | 1.03 | 1.07 | 1 | 0.656 | 1.11 |
